Patent publication US20230404985A1, “METHODS OF TREATING TUMORS AND CANCERS HAVING DYSREGULATED WNT SIGNALING PATHWAYS” (ICAHN SCHOOL OF MEDICINE AT MOUNT SINAI, priority 2020, published 2023)

What was measured:
[1] = 14-day oral gavage tissue toxicity study; format: in vivo
[2] = test system: cytoplasmic kinases including BRAF and p38α/β; test: NanoBRET live cell target engagement, cytoplasmic kinases; format: cell-based; details: relative to sorafenib and regorafenib
Procedure: For NanoBRET™ dose response experiments, SNU398 cells were transfected with a MAPK14-NanoLuc© Fusion Vector according to the Promega NanoBRET™ TE Intracellular Kinase Assay protocol. Following overnight transfection, cells were trypsinized and redistributed on a white 96-well plate (20,000 cells per well). Cells were incubated with 1 μM of K-4 Tracer and sorafenib or WNTinib at doses ranging from 0.02→20 μM for two hours. After drug incubation, plates were equilibrated to room temperature for 15 minutes, and NanoBRET™ Nano-Glo© Substrate and Extracellular NanoLuc© Inhibitor were added to wells. Bioluminescent donor (NanoLuc© luciferase) and fluorescent acceptor (Tracer) emission were measured on a GloMax plate reader at 450 and 600 nm, respectively. BRET ratio is reported as acceptor signal divided by the donor signal for each well. Conditions were evaluated in technical triplicates for each experiment, and experiments were repeated in biological duplicates. […] The plate was continuously read on a GloMax plate reader for 2 hours to record BRET signal from the association of the K-4 Tracer with the MAPK14-NanoLuc© Fusion Vector. Conditions were evaluated in technical triplicates, and experiments were repeated in biological duplicates.
In order to characterize the direct targets of WNTinib, kinome selectivity profiles were first assessed by in vitro kinase assays. […]

[3] = Dose escalation studies in mice; format: in vivo, mouse
Procedure: Mice were randomized into treatment groups, and daily oral dosing began one week after mice arrived at ISMMS. Body weight was recorded daily, and animals were monitored for any signs of sickness throughout the treatment period.
To rationalize a treatment regimen for WNTinib and understand potential toxicity, in vivo dose escalation was performed in three mouse strains (FIG. 8A, FIGS. 12A-12B). Mice were dosed daily for two weeks, and body weight loss was used as a proxy for systemic toxicity.

[4] = test system: MYC-CTNNB1 tumor organoid allografts; test: MYC-CTNNB1 tumor organoid allografts; format: in vivo, C57BL/6J mice
[5] = test system: wild type (WT) healthy intestinal organoids; test: TiterGlo viability of wild type intestinal organoids; format: cell-based, mouse; details: 72 hours post treatment
Procedure: FIGS. 13A-13E show results pertaining to colorectal cancer. […] Data are column/gene normalized on a 0-100 scale with 0 being the lowest expression level and 100 the highest. FIG. 13D show full dose-response analysis of WNTinib's effects on the indicated organoid and tumoroid lines; viability was quantified using the TiterGlo assay after 72 hours. WT intestinal organoids are used as a control. […] Images of the intestine are shown as an example.
First, an APC deletion (A) was introduced, then a KRAS^G12D overexpression (AK) in combination with a SMAD4^KO was introduced to affect the TGFbeta pathway (AKS). Last, P53 was deleted to mimic the latest stages of metastatic disease progression (AKSP).

[6] = test system: H3K27me3 at promoters of Wnt and pluripotency genes; test: ChIP-sequencing of H3K27me3 in MYC-CTNNB1 organoids; format: cell-based, mouse; details: WNTinib 1 μM, 24 hours
Excerpt: Importantly, this was not seen in the MYC-Tp53 model organoids (FIG. 10C).

WNT pathway reporter = test: GFP-based WNT reporter in stable MYC-CTNNB1 organoids; format: cell-based, mouse
Excerpt: The library was further refined by performing dose-response curves on tumor organoids and primary human hepatocytes (FIG. 1C). In addition, stable MYC-CTNNB1 organoids expressing a GFP-based WNT reporter were created to assess direct transcriptional inhibition of the pathway. […] WNTinib was exemplary for its therapeutic index, as defined by its preferential activity in the CTNNB1-driven model as compared to hepatocytes.

[7] = dosed daily via oral gavage for two weeks, three mouse strains
[8] = WNTinib 20 mg/kg daily, anti-PD-1 200 μg i.p., start ~350 mm^3
[9] = tumors of advanced-stage allograft study

## CNC(=O)c1cc(Oc2ccc(NC(=O)Nc3ccc(C(F)(F)C(F)(F)F)cc3)c(F)c2)ccn1 [WNTinib, 4-(3-fluoro-4-(3-(4-(perfluoroethyl)phenyl)ureido)phenoxy)-N-methylpicolinamide]
[1]; 60 mg/kg and 120 mg/kg oral gavage, 14 days
  pathological changes in brain, heart, esophagus, large intestine: do not reveal pathological changes
[1]; 14 days daily treatment, up to 4-fold the therapeutic dose
  toxicity in mouse intestine: no toxicity was observed in mouse intestine
[2]
  target engagement potency on cytoplasmic kinases BRAF and p38α/β: markedly less potent than sorafenib and regorafenib
[3]; dose escalation and 20 mg/kg PK (FIG. 8A, 8B)
  tolerability of exposures: well-tolerated
[3]; [7]
  body weight loss: weight loss did occur in a dose-dependent manner
  signs of sickness: No mice showed signs of sickness
[4]; [8]
  survival in allograft combination study: prolong survival
  tumor regression in allograft combination study: able to induce tumor regression
[4]; WNTinib 20 mg/kg, sorafenib 30 mg/kg daily, anti-PD-1 200 μg i.p., start ~350 mm^3
  efficacy in allograft combination study: superior efficacy
[4]; treatment started at 100 mm^3, 30 mg/kg daily oral gavage
  tumor regression: induced significant tumor regression in the majority of animals
[4]; treatment started at 300-400 mm^3, WNTinib 20 mg/kg, sorafenib 30 mg/kg
  efficacy in advanced-stage setting versus sorafenib: superior to the standard of care clinical compound (sorafenib)
[4]; [9]
  EZH2 T367 phosphorylation in tumors: inhibition of EZH2 T367 phosphorylation
  WNT-target genes in tumors (qPCR): in vivo suppression of WNT-target genes
[5]
  viability of WT organoids: without affecting that of WT organoids
[6]
  H3K27me3 at promoters of genes of Wnt and pluripotency pathways: upregulated the tri-methylation of lysine 27 on histone H3 (H3K27me3)
WNT pathway reporter
  WNT-driven GFP expression (WNT pathway reporter): only compound to downregulate WNT-driven GFP expression
